# Key:
# HT22 = test: In vitro ischemia; format: cell-based; settings: Mus musculus, HT-22, read-out: Half-maximal effective concentration, In vitro ischemia
# Experimental: (§1) The various phenotypic screening assays were conducted as previously described. Briefly, HT-22, primary cortical neurons, or MC65 was plated and exposed to the different environmental stresses. Cells were treated with varying concentrations of CAD-31, and half-maximal effective concentration (EC50) was determined on the basis of cell viability.
# (§2) • An assay that mimics the dramatic loss of neurotrophic support in the old brain is the trophic factor withdrawal assay. Primary embryonic day 18 cortical cells are plated at low density in serum-free medium. At low density, the cells die within 2 days; they can be rescued by combinations of neurotrophic growth factors, but not by one alone ([19] and unpublished data). […] BDNF is a molecule that is also involved in promoting memory and neurogenesis and is reduced in the brain with age and in AD, as well as in other neurological disorders. BDNF has long been considered a drug target for AD [23]. […] A reduction in GSH is a common denominator of old age and essentially all chronic central nervous system (CNS) diseases. J147 and CAD-31 both effectively reduce oxidative stress, with EC50 of 6 nM and 20 nM, respectively. • CAD-31 also prevents loss of energy metabolism that leads to neuron cell death in an in vitro ischemia model. […]
# [1] = test system: HT22 cells expressing the brain-derived neurotrophic factor (BDNF) receptor transmembrane receptor kinase B; test: BDNF-like activity (rescue from serum starvation); format: cell-based; settings: Mus musculus, HT-22, read-out: Half-maximal effective concentration, BDNF-like activity
# Experimental: as §1, §2
# Pharmacokinetics in rats = format: in vivo, Sprague-Dawley rats
# Experimental: Sprague-Dawley rats had free access to food and water. CAD-31 was given by gavage to rats at 20 mg/kg in corn oil and intravenously in 15% HS 15/PBS. Whole-blood samples were collected from the jugular vein at every time point and brain collected after 20-ml saline perfusion. CAD-31 was extracted with acetonitrile and compared with standards on a TSQ Quantiva™ Triple Quadrupole Mass Spectrometer (Thermo Scientific, Waltham, MA, USA). For the mouse feeding studies, mice had free access to food containing 200 ppm CAD-31. Blood was collected by heart puncture, and the brain concentration was determined as with rats.
# [2] = Body weights and food consumption during feeding study; format: in vivo, mice; settings: 200 ppm in diet for 3 months, measured weekly; data not shown
# Experimental: The APPswe/PS1∆E9-transgenic mice were characterized previously. Line 85 mice carry two transgenes, the mouse/human chimeric APPswe, linked to Swedish familial AD and human PS1∆E9. At 10 months of age, female transgenic mice were fed a defined diet (Harlan Teklad; Envigo, Indianapolis, IN, USA) with and without CAD-31 (200 ppm, approximately 10 mg/kg/day). Treatment continued for 3 months, followed by behavior testing and tissue harvesting.
compound,measurement,setting,value
Cc1ccc(N(/N=C/c2cccc(OC(F)(F)F)c2)C(=O)C(F)(F)F)c(C)c1 [CAD-31],EC50,HT22,47 nM
same,EC50,[1],95 nM
same,"PO Max Brain, concentration",Pharmacokinetics in rats; 20 mg/kg by gavage in corn oil,3.0 µM
same,"PO Max Brain, time",Pharmacokinetics in rats; 20 mg/kg by gavage in corn oil,8 h
same,"PO Max Plasma, concentration",Pharmacokinetics in rats; 20 mg/kg by gavage in corn oil,1.7 µM
same,"PO Max Plasma, time",Pharmacokinetics in rats; 20 mg/kg by gavage in corn oil,8 h
same,Kp at 8 h,"Pharmacokinetics in rats; Sprague-Dawley, rat, brain and plasma, po, 20 mg/kg by gavage, at 8 h, read-out: brain-to-plasma ratio",2.8
same,half-life,"Pharmacokinetics in rats; Sprague-Dawley, rat, in vivo, 20 mg/kg",4.3 h
same,bioavailability,"Pharmacokinetics in rats; Sprague-Dawley, rat, plasma, oral, 20 mg/kg",31%
same,body weights and food consumption,[2],no significant differences between the groups

# Source: article PMC5513091, “A novel Alzheimer’s disease drug candidate targeting inflammation and fatty acid metabolism” (Alzheimer's Research & Therapy, 2017)
